Source: patent US20050026833A1, “PSP-94: use for treatment of hypercalcemia and bone metastasis” (priority 2001, published 2005)

System: Mat Ly Lu-PTHrP skeletal metastasis
Assay: Bone histomorphometry of vertebrae (tumor volume to bone volume)
Assay type: in vivo, male Copenhagen rats
Experimental: Alternatively, cell pellets (10×10^3 cells) were resuspended in 100ul saline and injected using 1 ml syringes into the left ventricle of rats anaesthetised with ketamine/xylazine cocktail. […] The time after tumor cell inoculation which was required to develop hind limb paralysis (an index of spinal cord compression due to lumbar vertebrae metastasis) was determined and percentage of starting number of animals developing hind-limb paralysis was plotted. […]
Computer-Assisted Image Analysis. Computer-assisted image analysis was carried out to quantify PTHrP immunostaining and determination of % TV/BV in the vertebral sections. […] The threshold was set by determining the positive staining of control sections and was used to automatically analyze all recorded images of all samples that were stained in the same session under identical conditions. The area of stained regions was calculated automatically by the software in each microscopic field. Pixel counts of the immunoreaction product were calculated automatically and were given as total density of the integrated immunostaining over a given area. […]

E W Q T D N C E T C T C Y E T (EWQTDNCETCTCYET; PCK3145 (polypeptide 31-45))
ratio of tumor volume to bone volume (TV/BV) (100.0 ug/kg PCK3145, day 10 post inoculation, vs vehicle): significant decrease
trabecular and cortical bone destruction with compression of the spinal cord (100.0 ug/kg/day PCK3145, day 10, vs vehicle): significantly less
